These results are taken from patent US20220193047A1, “METHODS OF ENHANCING RADIOTHERAPY USING FERROPTOSIS INDUCERS AS RADIOSENSITIZERS” (THE TRUSTEES OF COLUMBIA UNIVERSITY IN THE CITY OF NEW YORK, priority 2019, published 2022).

* marks the point of attachment. Cbz = O=C(OCc1ccccc1)*; CH2F = FC*

Experiment [1] concerns HT-1080 cells. Nature of the experiment: Cell Titer Glo cell viability assay with radiation. The experiment is classed as cell-based. Particulars: for Cell viability after radiation (ATP-based luciferase assay): HT-1080, 4 Gy radiation for 24 h. The procedure:
HT-1080 cells were plated at 1,000 cells per well in white 96-well plates (100 uL per well) in technical duplicates. The cells were then treated with vehicle (DMSO), Ferrostatin-1, DFO, Z-VAD-FMK or Necrostatin-1S and incubated overnight. […] After another 24 h, 100 uL of 50% Cell Titer Glo (Promega) 50% cell culture medium was added to each well and incubated at room temperature with shaking for 15 min. Luminescence was measured using a Victor X5 plate reader (PerkinElmer). Experiments were performed three independent times with different passages for each cell line.

The test system of experiment [2] is HT-1080 cells. Nature of the experiment: Clonogenic assay with Cs-137 gamma radiation, HT-1080. The experiment is classed as cell-based. Also on record: key to CDI with radiation: CDI = AB/(A×B) of surviving fractions; <1 synergy. The settings on record: for Colony formation after radiation alone: HT-1080, 2 or 4 Gy radiation, no ferroptosis inducer; for Enhancement of radiation effect on clonogenic survival: HT-1080, cell death inducer plus radiation; for CDI with 4 Gy IR / CDI with 2 Gy IR: HT-1080 cells, CDI<1 synergy; for CDI with 2 Gy IR: inducer concentration (300 nM IKE, 20 nM RSL3, 1 nM staurosporine, 2 nM doxorubicin, 300 nM rapamycin, 100 ng/mL TNF + 20 μM Z-VAD-FMK + 300 nM birinapant); for CDI with radiation: 5 μM sorafenib, HT-1080. On the procedure:
500 cells were seeded per well in 6-well plates in their respective growth media and incubated overnight. The next day, cells were co-treated with DMSO or compounds and radiation using a Gammacell 40 Caesium-137 irradiator (Theratronics). Plates were monitored every day using a light microscope for formation of colonies in the DMSO-treated wells. When colonies of >50 cells are clearly visible, the growth medium was discarded from all plates. The cells were washed with PBS, then fixed and stained with crystal violet solution (0.05% crystal violet, 1% formaldehyde, 1% methanol in PBS). Colonies were then directly visualized and counted.
We tested their ability to prevent clonogenic growth, along with DMSO-treated controls.
The coefficient of drug interaction (CDI), used to compute interaction between two drugs, was used to quantify synergy between cell death inducers and radiation according to the formula CDI=AB/(A×B), where AB is the surviving fraction of the combination treatment, and A and B are the surviving fractions of the individual treatments.

Experiment [3] concerns GSH in HT-1080 xenograft tumors. Nature of the experiment: Reduced glutathione in xenograft tumor tissue.
Description: The cell pellet was resuspended in 100 μl of RIPA buffer and homogenized by pipetting. The lysate was centrifuged at 16,700×g at 4° C. for 15 min, and cleared lysate was used to determine the amount of GSH in the sample. We used the GSH/GSSG ratio detection assay kit (Abcam, #ab138881) and followed the product instructions to determine GSH levels.
The injections were repeated daily for 14 days. […] Tumor size was measured daily using calipers and mouse weight was measured daily. The animal protocols containing all the procedures were approved by Columbia University's IACUC.
For experiment [4], the system named is HT-1080 xenograft tumors. Nature of the experiment: HT-1080 tumor xenograft study in mice. The settings on record: 40 mg/kg i.p. daily for 14 days.
Description: The injections were repeated daily for 14 days. […] For the sorafenib experiment, the formulation used was 40 mg/kg sorafenib in 5% DMSO, 20% ethanol in water containing 30% w/v cyclodextrin. […] Tumor size was measured daily using calipers and mouse weight was measured daily.
The efficacy of the combined treatment regimen of radiation and ferroptosis inducer was evaluated in an in vivo tumor model. […] Athymic nude mice were implanted with subcutaneous HT-1080 fibrosarcoma cells to form xenograft tumors.
Experiment [5] relates to reduced glutathione (GSH) in HT-1080 cells. Nature of the experiment: Reduced glutathione measurement in cells. The settings on record: HT-1080, 6 Gy radiation for 24 hours, vs DMSO, sorafenib alone or radiation alone. Format: cell-based. The procedure: Cystine taken up by system xc^− is reduced to cysteine, a building block in the biosynthesis of glutathione. […] Using a fluorometric GSH probe, we observed that treatment with 2 or 6 Gy radiation for 24 hours depleted GSH in a dose-dependent manner in HT-1080 cells (FIG. 2E). […] Indeed, the decrease in colony formation of HT-1080 cells following 2 or 4 Gy radiation was rescued by either glutathione methyl ester or N-acetylcysteine, which is a biological precursor to glutathione (FIG. 9).

Experiment [6] deals with TM00219 patient-derived xenograft tumors. Nature of the experiment: Patient-derived xenograft study in mice (TM00219 lung adenocarcinoma). The experiment is classed as in vivo. The settings on record: 40 mg/kg i.p. daily for 14 days, NSG mice. On the procedure: The experiment was conducted according to the same protocol as the HT-1080 tumor xenograft study, with the exception that a single dose of radiation (sham or 6 Gy) was delivered to the tumor on day 1 of the experiment.
Finally, the effect of ferroptosis-inducing system xc^− inhibitors, in combination with radiation, was tested on a patient-derived xenograft (PDX) model of lung adenocarcinoma, which is another type of cancer commonly treated with radiation therapy. NSG mice engrafted with a human lung adenocarcinoma tumor (TM00219) were evaluated.

Experiment [7] relates to cleaved caspase-3. Nature of the experiment: Western blot of cleaved caspase-3. The experiment is classed as cell-based. On the procedure: 1 million cells were seeded in 10 cm dishes and treated with compounds and/or radiation on the next day. […] After quantification by Bradford, samples were mixed with 5×SDS loading buffer and separated by SDS-polyacrylamide gel electrophoresis. After transfer, membranes were blocked for 10 min in Tris-buffered saline (pH 7.4) with 1% Tween-20 (TBS-T) with 5% milk and incubated in primary antibody overnight at 4° C. Following 3× for 5 min washes in TBS-T, the membrane was incubated with secondary antibodies for 1 hr. The membrane was washed again in TBST 3× for 5 min prior to visualization using enhanced chemiluminescence (ECL Western Blotting Substrate, Pierce). Antibody for cleaved caspase 3 (Cell Signaling Technology, #9661) was used at 1:1000 and detected using a Peroxidase AffiniPure Goat Anti-Rabbit IgG (H+L) (Jackson ImmunoResearch, 111-295-144) at 1:5000 dilution.
DNA damage is a potent inducer of apoptosis. […] Despite this, some quantity of 17-kDa cleaved caspase-3 was still detectable in the Z-VAD-FMK-treated sample. To further check for potential radiation-induced apoptosis in this model at a later time point, we attempted to rescue the effects of radiation using 100 μM Z-VAD-FMK after 48, 72, and 96 h (FIG. 10).
(In general: A western blot detects proteins with antibodies after separation by electrophoresis.)

Experiment [8] deals with models of glioma, melanoma, and breast cancer. Particulars: Cobler et al., 2018, Nagane et al., Sleire et al., 2015; cited from earlier work.

As for `Cn1cnc(N)c2ncnc1-2` [3-methyladenine], the “Cell viability after radiation (ATP-based luciferase assay)” value in experiment [1] is reported as “also rescued cells”.

`CC(=O)N[C@@H](CS)C(=O)O` [N-acetylcysteine]: the “Colony formation after radiation alone” value in experiment [2] is “rescued”.

For the molecule `COc1cccc2c1C(=O)c1c(O)c3c(c(O)c1C2=O)C[C@@](O)(C(=O)CO)C[C@@H]3O[C@H]1C[C@H](N)[C@H](O)[C@H](C)O1` [doxorubicin], in experiment [2], the “Enhancement of radiation effect on clonogenic survival” value is reported as “only slightly enhancing radiation-induced cell death”, the “CDI with 4 Gy IR” value came to 0.9 and the “CDI with 2 Gy IR” value came to 1.07.

Consider `COC(=O)CNC(=O)[C@H](CS)NC(=O)CC[C@H](N)C(=O)O` [glutathione methyl ester], for which the “Colony formation after radiation alone” value in experiment [2] is on record as “rescued”.

For `CN1C(=O)NC(Cc2c[nH]c3c(Cl)cccc23)C1=O` (stereo not drawn) [necrostatin-1S], in experiment [1], the “Cell viability after radiation (ATP-based luciferase assay)” value is “not”.

For the molecule `CO[C@H]1C[C@@H]2CC[C@@H](C)[C@@](O)(O2)C(=O)C(=O)N2CCCC[C@H]2C(=O)O[C@H]([C@H](C)C[C@@H]2CC[C@@H](O)[C@H](OC)C2)CC(=O)[C@H](C)/C=C(\C)[C@@H](O)[C@@H](OC)C(=O)[C@H](C)C[C@H](C)/C=C/C=C/C=C/1C` [rapamycin], in experiment [2], the “CDI with 4 Gy IR” value came out at 0.62 and the “CDI with 2 Gy IR” value is on record as 0.89.

With `CNC(=O)c1cc(Oc2ccc(NC(=O)Nc3ccc(Cl)c(C(F)(F)F)c3)cc2)ccn1` [sorafenib], the CDI with radiation in experiment [2] (2 Gy) is listed as 0.65; in experiment [2] (4 Gy), 0.47. In addition, in experiment [3] (40 mg/kg sorafenib i.p. 14 days), the “GSH in tumor tissue, sorafenib vs vehicle” value is “significantly lower GSH”. In addition, in experiment [3] (40 mg/kg sorafenib i.p. 14 days plus 6 Gy on days 1 and 3), the “GSH in tumor tissue, dual-treated” value is “further significant GSH depletion”. Moreover, the “Tumor volume, sorafenib alone vs control” value in experiment [4] is “No difference was observed”. Also, in experiment [5], the “Levels of GSH, sorafenib plus radiation” value is recorded as “significant depletion of GSH”. Further, the “Tumor growth, combination with radiation vs all other groups” value in experiment [6] (6 Gy on day one) is listed as “significant tumor growth inhibition”. Further, in experiment [6], the “Tumor growth, drug alone vs vehicle only” value is “significant tumor control”.

As for `CN[C@@H]1C[C@H]2O[C@@](C)([C@@H]1OC)n1c3ccccc3c3c4c(c5c6ccccc6n2c5c31)C(=O)NC4` [staurosporine], in experiment [2], the “Enhancement of radiation effect on clonogenic survival” value is “only slightly enhancing radiation-induced cell death”, the “CDI with 4 Gy IR” value amounted to 0.83 and the “CDI with 2 Gy IR” value came out at 1.1. In experiment [7] (HT-1080, IKE or RSL3 24 h, staurosporine 500 nM for 6 h), the “Cleavage of caspase-3, compound alone” value is “induced cell death along with levels of caspase-3 cleavage”.

Take `O=C(O)c1cc(/N=N/c2ccc(S(=O)(=O)Nc3ccccn3)cc2)ccc1O` [sulfasalazine]: the “Potentiation of radiation (prior reports)” value in experiment [8] is recorded as “potentiate radiation”.

In the case of `Cc1c(C)c2c(c(C)c1O)CCC(C)(C(=O)O)O2` (stereo not drawn) [trolox], in experiment [2], the “Colony formation after radiation alone” value is on record as “partially rescued cell death induced by radiation alone”. Besides, the “Synergy between IKE or RSL3 and radiation in colony formation” value in experiment [2] (HT-1080, co-treatment with ferroptosis inhibitor) is on record as “suppress the synergy”.

Take Cbz-Val-Ala-Asp-CH2F: the “Rescue of cell viability after radiation at later time points” value in experiment [1] (HT-1080, 100 μM Z-VAD-FMK, 48, 72, and 96 h) was “no significant rescue of cell viability”. The “Cell viability after radiation (ATP-based luciferase assay)” value in experiment [1] was “not”. The Staurosporine-induced cell death result in experiment [7] (HT-1080, 500 nM staurosporine plus 100 μM Z-VAD-FMK) was “rescued from staurosporine-induced cell death”.
